# Measurements as given in ChEMBL document CHEMBL4411285, “Design, synthesis, in silico pharmacokinetics prediction and biological evaluation of 1,4-dihydroindeno[1,2-c]pyrazole chalcone as EGFR /Akt pathway inhibitors” (Eur J Med Chem, 2019).
# Activity calls are given as the source filed them. The rule behind the calls is not given here.
# Tested on: A549
# Test: Downregulation of AKT expression in human A549 cells at 10 uM after 24 hrs by Hoechst staining-based immunocytochemistry
# Assay type: functional, cell-based
# Details: not given
row,Compound,Activity
1,COc1ccc(C(=O)/C=C/c2[nH]nc3c2Cc2cc(OC)c(OC)cc2-3)cc1OC,Active
2,C#Cc1cccc(Nc2ncnc3cc(OCCOC)c(OCCOC)cc23)c1 [ERLOTINIB],Active
3,COc1ccc2c(c1)-c1n[nH]c(/C=C/C(=O)c3cc(OC)c(OC)c(OC)c3)c1C2,Active
4,COc1cc2c(cc1OC)-c1n[nH]c(/C=C/C(=O)c3cc(OC)c(OC)c(OC)c3)c1C2,Active

# Tested on: A549
# Test: Induction of apoptosis in human A549 cells assessed as increase in TP53 expression at 10 uM after 24 hrs by Western blot analysis
# Assay type: functional, cell-based
# Details: not given
row,Compound,Activity
1,COc1ccc(C(=O)/C=C/c2[nH]nc3c2Cc2cc(OC)c(OC)cc2-3)cc1OC,Active
2,C#Cc1cccc(Nc2ncnc3cc(OCCOC)c(OCCOC)cc23)c1 [ERLOTINIB],Active
3,COc1ccc2c(c1)-c1n[nH]c(/C=C/C(=O)c3cc(OC)c(OC)c(OC)c3)c1C2,Active
4,COc1cc2c(cc1OC)-c1n[nH]c(/C=C/C(=O)c3cc(OC)c(OC)c(OC)c3)c1C2,Active

# Tested on: A549
# Test: Cell cycle arrest in human A549 cells assessed as accumulation of cells at G0/G1 phase at 10 uM after 24 hrs by propidium iodide staining-based flow cytometric analysis (reference value: 71.1%)
# Assay type: functional
# Details: not given
row,Compound,Activity [%]
1,COc1ccc(C(=O)/C=C/c2[nH]nc3c2Cc2cc(OC)c(OC)cc2-3)cc1OC,45.9
2,C#Cc1cccc(Nc2ncnc3cc(OCCOC)c(OCCOC)cc23)c1 [ERLOTINIB],64.1
3,COc1ccc2c(c1)-c1n[nH]c(/C=C/C(=O)c3cc(OC)c(OC)c(OC)c3)c1C2,59.5
4,COc1cc2c(cc1OC)-c1n[nH]c(/C=C/C(=O)c3cc(OC)c(OC)c(OC)c3)c1C2,51.1

# Tested on: HEK-293T
# Test: Cytotoxicity against human HEK293T cells after 24 hrs by MTT assay
# Assay type: cell-based
# Details: not given
row,Compound,IC50 [µM]
1,COc1ccc(C(=O)/C=C/c2[nH]nc3c2Cc2cc(OC)c(OC)cc2-3)cc1OC,46
2,COc1ccc(C(=O)/C=C/c2[nH]nc3c2Cc2ccc(OC)cc2-3)cc1,45
3,C#Cc1cccc(Nc2ncnc3cc(OCCOC)c(OCCOC)cc23)c1 [ERLOTINIB],73
4,COc1cc2c(cc1OC)-c1n[nH]c(/C=C/C(=O)c3ccc(N)cc3)c1C2,20
5,O=C(/C=C/c1[nH]nc2c1Cc1ccccc1-2)c1ccc2c(c1)OCO2,17
6,COc1ccc(C(=O)/C=C/c2[nH]nc3c2Cc2cc(OC)c(OC)cc2-3)cc1,23
7,COc1ccc2c(c1)-c1n[nH]c(/C=C/C(=O)c3cc(OC)c(OC)c(OC)c3)c1C2,32
8,COc1cc2c(cc1OC)-c1n[nH]c(/C=C/C(=O)c3cc(OC)c(OC)c(OC)c3)c1C2,29

# Target: Tubulin (Homo sapiens) (UniProt P68371+Q9H4B7+P0DPH7+P68366+Q13509+Q71U36+P04350+Q3ZCM7+P07437+P68363+Q9BQE3+Q6PEY2+Q13885+Q9BVA1+Q9BUF5)
# Test: Inhibition of tubulin network in human A549 cells at 10 uM after 24 hrs by Hoechst 33342 staining-based confocal microscopic analysis
# Assay type: cell-based
# Details: not given
row,Compound,inhibition
1,COc1ccc(C(=O)/C=C/c2[nH]nc3c2Cc2cc(OC)c(OC)cc2-3)cc1OC,Active
2,COc1ccc2c(c1)-c1n[nH]c(/C=C/C(=O)c3cc(OC)c(OC)c(OC)c3)c1C2,Active
3,COc1cc2c(cc1OC)-c1n[nH]c(/C=C/C(=O)c3cc(OC)c(OC)c(OC)c3)c1C2,Active

# Tested on: SK-BR-3
# Test: Cytotoxicity against human SKBR3 cells after 24 hrs by MTT assay
# Assay type: functional, cell-based
# Details: SK-BR-3, 24 h
row,Compound,IC50 [µM]
1,COc1ccc(C(=O)/C=C/c2[nH]nc3c2Cc2cc(OC)c(OC)cc2-3)cc1OC,5.11
2,COc1ccc(C(=O)/C=C/c2[nH]nc3c2Cc2ccc(OC)cc2-3)cc1,10.2
3,C#Cc1cccc(Nc2ncnc3cc(OCCOC)c(OCCOC)cc23)c1 [ERLOTINIB],3.98
4,COc1cc2c(cc1OC)-c1n[nH]c(/C=C/C(=O)c3ccc(N)cc3)c1C2,9.23
5,O=C(/C=C/c1[nH]nc2c1Cc1ccccc1-2)c1ccc2c(c1)OCO2,17.3
6,COc1ccc(C(=O)/C=C/c2[nH]nc3c2Cc2cc(OC)c(OC)cc2-3)cc1,8.52
7,COc1ccc2c(c1)-c1n[nH]c(/C=C/C(=O)c3cc(OC)c(OC)c(OC)c3)c1C2,4.79
8,COc1cc2c(cc1OC)-c1n[nH]c(/C=C/C(=O)c3cc(OC)c(OC)c(OC)c3)c1C2,4.97

# Tested on: HCT-116
# Test: Cytotoxicity against human HCT116 cells after 24 hrs by MTT assay
# Assay type: functional, cell-based
# Details: HCT-116, 24 h
row,Compound,IC50 [µM]
1,COc1ccc(C(=O)/C=C/c2[nH]nc3c2Cc2cc(OC)c(OC)cc2-3)cc1OC,6.66
2,COc1ccc(C(=O)/C=C/c2[nH]nc3c2Cc2ccc(OC)cc2-3)cc1,13.2
3,C#Cc1cccc(Nc2ncnc3cc(OCCOC)c(OCCOC)cc23)c1 [ERLOTINIB],7.31
4,COc1cc2c(cc1OC)-c1n[nH]c(/C=C/C(=O)c3ccc(N)cc3)c1C2,8.34
5,O=C(/C=C/c1[nH]nc2c1Cc1ccccc1-2)c1ccc2c(c1)OCO2,13.8
6,COc1ccc(C(=O)/C=C/c2[nH]nc3c2Cc2cc(OC)c(OC)cc2-3)cc1,11.6
7,COc1ccc2c(c1)-c1n[nH]c(/C=C/C(=O)c3cc(OC)c(OC)c(OC)c3)c1C2,6.85
8,COc1cc2c(cc1OC)-c1n[nH]c(/C=C/C(=O)c3cc(OC)c(OC)c(OC)c3)c1C2,5.9

# Tested on: MCF7
# Test: Cytotoxicity against human MCF7 cells after 24 hrs by MTT assay
# Assay type: functional, cell-based
# Details: MCF7, 24 h
row,Compound,IC50 [µM]
1,COc1ccc(C(=O)/C=C/c2[nH]nc3c2Cc2cc(OC)c(OC)cc2-3)cc1OC,6.94
2,COc1ccc(C(=O)/C=C/c2[nH]nc3c2Cc2ccc(OC)cc2-3)cc1,9.18
3,C#Cc1cccc(Nc2ncnc3cc(OCCOC)c(OCCOC)cc23)c1 [ERLOTINIB],12.4
4,COc1cc2c(cc1OC)-c1n[nH]c(/C=C/C(=O)c3ccc(N)cc3)c1C2,7.5
5,O=C(/C=C/c1[nH]nc2c1Cc1ccccc1-2)c1ccc2c(c1)OCO2,12.4
6,COc1ccc(C(=O)/C=C/c2[nH]nc3c2Cc2cc(OC)c(OC)cc2-3)cc1,6.99
7,COc1ccc2c(c1)-c1n[nH]c(/C=C/C(=O)c3cc(OC)c(OC)c(OC)c3)c1C2,6.55
8,COc1cc2c(cc1OC)-c1n[nH]c(/C=C/C(=O)c3cc(OC)c(OC)c(OC)c3)c1C2,6.83

# Tested on: A549
# Test: Cell cycle arrest in human A549 cells assessed as accumulation of cells at G2/M phase at 10 uM after 24 hrs by propidium iodide staining-based flow cytometric analysis (reference value: 21.7%)
# Assay type: functional
# Details: not given
row,Compound,Activity [%]
1,COc1ccc(C(=O)/C=C/c2[nH]nc3c2Cc2cc(OC)c(OC)cc2-3)cc1OC,40.6
2,C#Cc1cccc(Nc2ncnc3cc(OCCOC)c(OCCOC)cc23)c1 [ERLOTINIB],26
3,COc1ccc2c(c1)-c1n[nH]c(/C=C/C(=O)c3cc(OC)c(OC)c(OC)c3)c1C2,29.6
4,COc1cc2c(cc1OC)-c1n[nH]c(/C=C/C(=O)c3cc(OC)c(OC)c(OC)c3)c1C2,33.7

# Tested on: A549
# Test: Downregulation of EGFR expression in human A549 cells at 10 uM after 24 hrs by Hoechst staining-based fluorescence assay
# Assay type: functional, cell-based
# Details: not given
row,Compound,Activity
1,COc1ccc(C(=O)/C=C/c2[nH]nc3c2Cc2cc(OC)c(OC)cc2-3)cc1OC,Active
2,C#Cc1cccc(Nc2ncnc3cc(OCCOC)c(OCCOC)cc23)c1 [ERLOTINIB],Active
3,COc1ccc2c(c1)-c1n[nH]c(/C=C/C(=O)c3cc(OC)c(OC)c(OC)c3)c1C2,Active
4,COc1cc2c(cc1OC)-c1n[nH]c(/C=C/C(=O)c3cc(OC)c(OC)c(OC)c3)c1C2,Active

# Tested on: A549
# Test: Cell cycle arrest in human A549 cells assessed as accumulation of cells at sub G1 phase at 10 uM after 24 hrs by propidium iodide staining-based flow cytometric analysis (reference value: 0.52%)
# Assay type: functional
# Details: not given
row,Compound,Activity [%]
1,COc1ccc(C(=O)/C=C/c2[nH]nc3c2Cc2cc(OC)c(OC)cc2-3)cc1OC,5.27
2,C#Cc1cccc(Nc2ncnc3cc(OCCOC)c(OCCOC)cc23)c1 [ERLOTINIB],1.71
3,COc1ccc2c(c1)-c1n[nH]c(/C=C/C(=O)c3cc(OC)c(OC)c(OC)c3)c1C2,2.36
4,COc1cc2c(cc1OC)-c1n[nH]c(/C=C/C(=O)c3cc(OC)c(OC)c(OC)c3)c1C2,5.16

# Tested on: A549
# Test: Induction of apoptosis in human A549 cells assessed as decrease in Bcl-2 expression at 10 uM after 24 hrs by Western blot analysis
# Assay type: functional, cell-based
# Details: not given
row,Compound,Activity
1,COc1ccc(C(=O)/C=C/c2[nH]nc3c2Cc2cc(OC)c(OC)cc2-3)cc1OC,Active
2,C#Cc1cccc(Nc2ncnc3cc(OCCOC)c(OCCOC)cc23)c1 [ERLOTINIB],Active
3,COc1ccc2c(c1)-c1n[nH]c(/C=C/C(=O)c3cc(OC)c(OC)c(OC)c3)c1C2,Active
4,COc1cc2c(cc1OC)-c1n[nH]c(/C=C/C(=O)c3cc(OC)c(OC)c(OC)c3)c1C2,Active

# Tested on: A549
# Test: Inhibition of 3-D spheroids cell growth in human A549 cells at 10 uM after 25 days by crystal violet staining-based immunocytochemistry
# Assay type: functional
# Details: not given
row,Compound,growth inhibition (GI)
1,COc1ccc(C(=O)/C=C/c2[nH]nc3c2Cc2cc(OC)c(OC)cc2-3)cc1OC,Active
2,COc1ccc2c(c1)-c1n[nH]c(/C=C/C(=O)c3cc(OC)c(OC)c(OC)c3)c1C2,Active
3,COc1cc2c(cc1OC)-c1n[nH]c(/C=C/C(=O)c3cc(OC)c(OC)c(OC)c3)c1C2,Active

# Tested on: MDA-MB-231
# Test: Cytotoxicity against human MDA-MB-231 cells after 24 hrs by MTT assay
# Assay type: functional, cell-based
# Details: MDA-MB-231, 24 h
row,Compound,IC50 [µM]
1,COc1ccc(C(=O)/C=C/c2[nH]nc3c2Cc2cc(OC)c(OC)cc2-3)cc1OC,3.82
2,COc1ccc(C(=O)/C=C/c2[nH]nc3c2Cc2ccc(OC)cc2-3)cc1,6.21
3,C#Cc1cccc(Nc2ncnc3cc(OCCOC)c(OCCOC)cc23)c1 [ERLOTINIB],0.05
4,COc1cc2c(cc1OC)-c1n[nH]c(/C=C/C(=O)c3ccc(N)cc3)c1C2,6.4
5,O=C(/C=C/c1[nH]nc2c1Cc1ccccc1-2)c1ccc2c(c1)OCO2,14.5
6,COc1ccc(C(=O)/C=C/c2[nH]nc3c2Cc2cc(OC)c(OC)cc2-3)cc1,6.54
7,COc1ccc2c(c1)-c1n[nH]c(/C=C/C(=O)c3cc(OC)c(OC)c(OC)c3)c1C2,5.89
8,COc1cc2c(cc1OC)-c1n[nH]c(/C=C/C(=O)c3cc(OC)c(OC)c(OC)c3)c1C2,6.03

# Tested on: A549
# Test: Cytotoxicity against human A549 cells after 24 hrs by MTT assay
# Assay type: functional, cell-based
# Details: A549, 24 h
row,Compound,IC50 [µM]
1,COc1ccc(C(=O)/C=C/c2[nH]nc3c2Cc2cc(OC)c(OC)cc2-3)cc1OC,5.21
2,COc1ccc(C(=O)/C=C/c2[nH]nc3c2Cc2ccc(OC)cc2-3)cc1,13.3
3,COc1cc2c(cc1OC)-c1n[nH]c(/C=C/C(=O)c3ccc(N)cc3)c1C2,9.73
4,O=C(/C=C/c1[nH]nc2c1Cc1ccccc1-2)c1ccc2c(c1)OCO2,16
5,COc1ccc(C(=O)/C=C/c2[nH]nc3c2Cc2cc(OC)c(OC)cc2-3)cc1,9.88
6,COc1ccc2c(c1)-c1n[nH]c(/C=C/C(=O)c3cc(OC)c(OC)c(OC)c3)c1C2,3.82
7,COc1cc2c(cc1OC)-c1n[nH]c(/C=C/C(=O)c3cc(OC)c(OC)c(OC)c3)c1C2,4.33

# Tested on: A549
# Test: Induction of apoptosis in human A549 cells assessed as increase in BAX expression at 10 uM after 24 hrs by Western blot analysis
# Assay type: functional, cell-based
# Details: not given
row,Compound,Activity
1,COc1ccc(C(=O)/C=C/c2[nH]nc3c2Cc2cc(OC)c(OC)cc2-3)cc1OC,Active
2,C#Cc1cccc(Nc2ncnc3cc(OCCOC)c(OCCOC)cc23)c1 [ERLOTINIB],Active
3,COc1ccc2c(c1)-c1n[nH]c(/C=C/C(=O)c3cc(OC)c(OC)c(OC)c3)c1C2,Active
4,COc1cc2c(cc1OC)-c1n[nH]c(/C=C/C(=O)c3cc(OC)c(OC)c(OC)c3)c1C2,Active

# Tested on: A549
# Test: Cell cycle arrest in human A549 cells assessed as accumulation of cells at S phase at 10 uM after 24 hrs by propidium iodide staining-based flow cytometric analysis (reference value: 6.22%)
# Assay type: functional
# Details: not given
row,Compound,Activity [%]
1,COc1ccc(C(=O)/C=C/c2[nH]nc3c2Cc2cc(OC)c(OC)cc2-3)cc1OC,7.62
2,C#Cc1cccc(Nc2ncnc3cc(OCCOC)c(OCCOC)cc23)c1 [ERLOTINIB],7.72
3,COc1ccc2c(c1)-c1n[nH]c(/C=C/C(=O)c3cc(OC)c(OC)c(OC)c3)c1C2,7.99
4,COc1cc2c(cc1OC)-c1n[nH]c(/C=C/C(=O)c3cc(OC)c(OC)c(OC)c3)c1C2,9.36
